Counter-ions that a name gives are not always drawn.
These molecules were tested against T1, human S1P1 (Homo sapiens, UniProt P21453) (assay: 35S-GTPγS binding assay using a membrane prepared from CHO cells which stably express S1P1 receptor). Details: CHO cell membrane fraction stably expressing human S1P1, read-out: EC50 (concentration of agonist required to give 50% of its own maximum increase ratio), human S1P1.
T1 construct: expressed in transfected cells
T1 sequence (P21453 whole entry): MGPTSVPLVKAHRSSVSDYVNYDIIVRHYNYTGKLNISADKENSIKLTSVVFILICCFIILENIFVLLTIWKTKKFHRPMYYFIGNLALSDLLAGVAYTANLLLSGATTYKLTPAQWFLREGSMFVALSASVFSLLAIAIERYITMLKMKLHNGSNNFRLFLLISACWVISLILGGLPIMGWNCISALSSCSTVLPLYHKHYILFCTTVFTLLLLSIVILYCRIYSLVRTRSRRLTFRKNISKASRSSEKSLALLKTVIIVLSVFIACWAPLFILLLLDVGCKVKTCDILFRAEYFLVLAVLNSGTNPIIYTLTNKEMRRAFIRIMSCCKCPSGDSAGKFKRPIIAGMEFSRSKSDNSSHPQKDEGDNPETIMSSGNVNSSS
Format: biochemical
Method: ^35S-GTPγS Binding Assay Using a Membrane Prepared from CHO Cells Which Stably Express S1P1 Receptor
Functional activation of human S1P1 by the compounds was determined based on quantification of ^35S-GTPγS binding to G protein due to the receptor activation, by using a cell membrane fraction prepared from CHO cells in which human S1P1 are stably expressed. As for human S1P1, the above described human S1P1 was used. Membrane proteins as prepared and various concentrations of sphingosine-1-phosphate or the compounds diluted in a solvent such as DMSO were incubated in a solution comprising 20 mM Tris-Cl (pH 7.5), 100 mM NaCl, 10 mM MgCl2, […] (Upstate), 0.1% BSA (fatty acid free, Sigma) and 25 pM ^35S-GTPγS (specific activity 1250 Ci/mmol) in 96 well microtiter plates. Binding was performed by incubating them for 90 minutes at room temperature, and then terminated by harvesting the membrane proteins onto multiscreeen harvest FB plates (Millipore) using Millipore multiscreen separation system. After drying the harvest plates at least for 12 hours, 25 μl of MicroScint-O (Perkin Elmer) was added to each well and radioactivity was measured using a Top Counter.
Having the value measured for the well to which a solvent has been added as a control value, the agonist activity of the compounds was determined by comparing the increase in the well to which a test compound has been added to the control value, and therefore an increase ratio for each concentration of the compounds was obtained. EC50 values were culcurated as defined to be the concentration of agonist required to give 50% of its own maximum increase ratio.
`CSc1ccccc1-c1ccc(-c2nc(-c3ccc4c(c3)CCC4N[C@H]3C[C@H](C(=O)O)C3)no2)cc1C` (mixture of isomers) [Example 6, 1,3-Trans-3-(5-(5-(2-methyl-2′-methylthiobiphenyl-4-yl)-1,2,4-oxadiazol-3-yl)-2,3-dihydro-1H-inden-1-ylamino)cyclobutane carboxylic acid hydrochloric acid salt] showed an EC50 of less than 10 nM.
`Cc1cc(-c2nc(-c3ccc4c(c3)CCC4N[C@H]3C[C@H](C(=O)O)C3)no2)cc(C)c1-c1ccccc1` (some centres unmarked) [Example 2] showed an EC50 of less than 10 nM.
Molecule `Cc1cc(-c2nc(-c3ccc4c(c3)CCC4N[C@H]3C[C@H](C(=O)O)C3)no2)ccc1-c1ccsc1` (some centres unmarked) [Example 3] has an EC50 of less than 10 nM.
`Cc1cc(-c2nc(-c3ccc4c(c3)CCC4N[C@H]3C[C@H](C(=O)O)C3)no2)ccc1-c1cccc(F)c1` (some centres unmarked) [Example 4] was tested, and the EC50 was less than 10 nM.
`Cc1cc(-c2nc(-c3ccc4c(c3)CCC4N[C@H]3C[C@H](C(=O)O)C3)no2)c(F)cc1-c1ccsc1` (some centres unmarked) [Example 5] gave an EC50 of less than 10 nM.
For `CSc1ccccc1-c1ccc(-c2nc(-c3ccc4c(c3)CN([C@H]3C[C@H](C(=O)O)C3)C4)no2)cc1C` [Example 10], the EC50 was less than 10 nM.
`Cc1cc(-c2nc(-c3ccc4c(c3)CCC4N[C@H]3C[C@H](C(=O)O)C3)no2)c(F)cc1-c1ccccc1` (some centres unmarked) [Example 12] gave an EC50 of less than 10 nM.
For `Cc1cc(-c2nc(-c3ccc4c(c3)CCC4N[C@H]3C[C@H](C(=O)O)C3)no2)c(F)cc1-c1ccoc1` (some centres unmarked) [Example 13], the EC50 was less than 10 nM.
`Cc1cc(-c2nc(-c3ccc4c(c3)CCC4N[C@H]3C[C@H](C(=O)O)C3)no2)ccc1-c1ccoc1` (some centres unmarked) [Example 14] gave an EC50 of less than 10 nM.
With `Cc1cc(-c2nc(-c3ccc4c(c3)CCC4N[C@H]3C[C@H](C(=O)O)C3)no2)cc(C)c1-c1ccccc1F` (some centres unmarked) [Example 15] the EC50 was less than 10 nM.
`Cc1cc(-c2nc(-c3ccc4c(c3)CCC4N[C@H]3C[C@H](C(=O)O)C3)no2)cc(C)c1-c1ccsc1` (some centres unmarked) [Example 16] gave an EC50 of less than 10 nM.
`Cc1cc(-c2nc(-c3ccc4c(c3)CCC4N[C@H]3C[C@H](C(=O)O)C3)no2)ccc1-c1ccccc1OC(F)(F)F` (some centres unmarked) [Example 17] was tested, and the EC50 was less than 10 nM.
In the case of `Cc1cc(-c2nc(-c3ccc4c(c3)CCC4N[C@H]3C[C@H](C(=O)O)C3)no2)ccc1-c1ccccc1F` (some centres unmarked) [Example 20], the EC50 is reported as less than 10 nM.
With `Cc1cc(-c2nc(-c3ccc4c(c3)CCC4N[C@H]3C[C@H](C(=O)O)C3)no2)ccc1-c1ccccc1C(F)(F)F` (some centres unmarked) [Example 21] the EC50 was less than 10 nM.
Molecule `Cc1cscc1-c1c(C)cc(-c2nc(-c3ccc4c(c3)CCC4N[C@H]3C[C@H](C(=O)O)C3)no2)cc1C` (some centres unmarked) [Example 22] has an EC50 of less than 10 nM.
Work on `Cc1cc(-c2nc(-c3ccc4c(c3)CCC4N[C@H]3C[C@H](C(=O)O)C3)no2)c(F)cc1-c1cccc(F)c1` (some centres unmarked) [Example 23] yielded an EC50 of less than 10 nM.
`Cc1cc(-c2nc(-c3ccc4c(c3)CCC4N[C@H]3C[C@H](C(=O)O)C3)no2)c(F)cc1-c1ccccc1OC(F)(F)F` (some centres unmarked) [Example 24] was tested, and the EC50 was less than 10 nM.
With `Cc1cc(-c2nc(-c3ccc4c(c3)CCC4N[C@H]3C[C@H](C(=O)O)C3)no2)ccc1-c1cscc1C` (some centres unmarked) [Example 25] the EC50 was less than 10 nM.
Molecule `Cc1cc(-c2nc(-c3ccc4c(c3)CCC4N[C@H]3C[C@H](C(=O)O)C3)no2)c(F)cc1-c1ccccc1F` (some centres unmarked) [Example 26] has an EC50 of less than 10 nM.
`Cc1cc(-c2nc(-c3ccc4c(c3)CCC4N[C@H]3C[C@H](C(=O)O)C3)no2)ccc1-c1cccc(F)c1F` (some centres unmarked) [Example 28] was tested, and the EC50 was less than 10 nM.
In the case of `Cc1cc(-c2nc(-c3ccc4c(c3)CCC4N[C@H]3C[C@H](C(=O)O)C3)no2)ccc1-c1cc(F)ccc1F` (some centres unmarked) [Example 29], the EC50 is reported as less than 10 nM.
Work on `Cc1cc(-c2nc(-c3ccc4c(c3)CCC4N[C@H]3C[C@H](C(=O)O)C3)no2)c(F)cc1-c1ccccc1C(F)(F)F` (some centres unmarked) [Example 30] yielded an EC50 of less than 10 nM.
`Cc1cc(-c2nc(-c3ccc4c(c3)CCC4N[C@H]3C[C@H](C(=O)O)C3)no2)ccc1-c1cccc(C(F)(F)F)c1F` (some centres unmarked) [Example 31] was tested, and the EC50 was less than 10 nM.
`Cc1cc(-c2nc(-c3ccc4c(c3)CCC4N[C@H]3C[C@H](C(=O)O)C3)no2)c(F)cc1-c1cccc(F)c1F` (some centres unmarked) [Example 32] gave an EC50 of less than 10 nM.
Molecule `Cc1cc(-c2nc(-c3ccc4c(c3)CCC4N[C@H]3C[C@H](C(=O)O)C3)no2)ccc1-c1cccc(Cl)c1F` (some centres unmarked) [Example 34] has an EC50 of less than 10 nM.
Molecule `Cc1cc(-c2nc(-c3ccc4c(c3)CCC4N[C@H]3C[C@H](C(=O)O)C3)no2)ccc1-c1cc(Cl)ccc1F` (some centres unmarked) [Example 35] has an EC50 of less than 10 nM.
With `Cc1cc(-c2nc(-c3ccc4c(c3)CCC4N[C@H]3C[C@H](C(=O)O)C3)no2)ccc1-c1cc(C(F)(F)F)ccc1F` (some centres unmarked) [Example 36] the EC50 was less than 10 nM.
`Cc1cc(-c2nc(-c3ccc4c(c3)CCC4N[C@H]3C[C@H](C(=O)O)C3)no2)ccc1-c1cccc(C)c1F` (some centres unmarked) [Example 37] was tested, and the EC50 was less than 10 nM.
`COc1cccc(-c2ccc(-c3nc(-c4ccc5c(c4)CCC5N[C@H]4C[C@H](C(=O)O)C4)no3)cc2C)c1F` (some centres unmarked) [Example 38] showed an EC50 of less than 10 nM.
With `Cc1cc(-c2nc(-c3ccc4c(c3)CCC4N[C@H]3C[C@H](C(=O)O)C3)no2)ccc1-c1cccc(F)c1C(F)(F)F` (some centres unmarked) [Example 39] the EC50 was less than 10 nM.
With `Cc1cc(-c2nc(-c3ccc4c(c3)CCC4N[C@H]3C[C@H](C(=O)O)C3)no2)c(F)cc1-c1cccc(F)c1C(F)(F)F` (some centres unmarked) [Example 40] the EC50 was less than 10 nM.
In the case of `Cc1cc(-c2nc(-c3ccc4c(c3)CCC4N[C@H]3C[C@H](C(=O)O)C3)no2)c(F)cc1-c1cccc(C(F)(F)F)c1F` (some centres unmarked) [Example 41], the EC50 is reported as less than 10 nM.
Work on `Cc1cc(-c2nc(-c3ccc4c(c3)CCC4N[C@H]3C[C@H](C(=O)O)C3)no2)ccc1-c1c(F)cccc1F` (some centres unmarked) [Example 42] yielded an EC50 of less than 10 nM.
For `Cc1cc(-c2nc(-c3ccc4c(c3)CCC4N[C@H]3C[C@H](C(=O)O)C3)no2)ccc1-c1c(F)ccc(C)c1Cl` (some centres unmarked) [Example 43], the EC50 was less than 10 nM.
Work on `Cc1cc(-c2nc(-c3ccc4c(c3)CCC4N[C@H]3C[C@H](C(=O)O)C3)no2)ccc1-c1c(Cl)ccc(C)c1F` (some centres unmarked) [Example 44] yielded an EC50 of less than 10 nM.
With `Cc1cc(-c2nc(-c3ccc4c(c3)CCC4N[C@H]3C[C@H](C(=O)O)C3)no2)ccc1-c1c(F)ccc(F)c1F` (some centres unmarked) [Example 45] the EC50 was less than 10 nM.
For `Cc1cc(-c2nc(-c3ccc4c(c3)CCC4N[C@H]3C[C@H](C(=O)O)C3)no2)ccc1-c1cc(F)cc(F)c1F` (some centres unmarked) [Example 46], the EC50 was less than 10 nM.
`Cc1cc(-c2nc(-c3ccc4c(c3)CCC4N[C@H]3C[C@H](C(=O)O)C3)no2)ccc1-c1cccc(C(F)(F)F)c1C(F)(F)F` (some centres unmarked) [Example 47] was tested, and the EC50 was less than 10 nM.
For `Cc1cc(-c2nc(-c3ccc4c(c3)CCC4NC3CC(C(=O)O)C3)no2)ccc1-c1cccc([N+](=O)[O-])c1C(F)(F)F` (centres unmarked) [Example 49], the EC50 was less than 10 nM.
With `Cc1cc(-c2nc(-c3ccc4c(c3)CCC4N[C@H]3C[C@H](C(=O)O)C3)no2)ccc1-c1cccc(Cl)c1C(F)(F)F` (some centres unmarked) [Example 50] the EC50 was less than 10 nM.
For `Cc1cc(-c2nc(-c3ccc4c(c3)CCC4N[C@H]3C[C@H](C(=O)O)C3)no2)ccc1-c1cccc(Br)c1C(F)(F)F` (some centres unmarked) [Example 51], the EC50 was less than 10 nM.
`Cc1cc(-c2nc(-c3ccc4c(c3)CCC4N[C@H]3C[C@H](C(=O)O)C3)no2)ccc1-c1cccc(I)c1C(F)(F)F` (some centres unmarked) [Example 52] gave an EC50 of less than 10 nM.
For `Cc1cc(-c2nc(-c3cc(C)c4c(c3)CN([C@H]3C[C@H](C(=O)O)C3)C4)no2)ccc1-c1ccccc1C(F)(F)F` [Example 54], the EC50 was less than 10 nM.
`O=C(O)C1CC(NC2CCc3cc(-c4noc(-c5ccc(-c6ccccc6F)c(Cl)c5)n4)ccc32)C1` (stereo not drawn) [Example 55, 1,3-Trans-3-(5-(5-(2-chloro-2′-fluorobiphenyl-4-yl)-1,2,4-oxadiazol-3-yl)-2,3-dihydro-1H-inden-1-ylamino)cyclobutane carboxylic acid hydrochloric acid salt] gave an EC50 of less than 10 nM.

— US20090298894A1, “AMINO ACID COMPOUNDS” (Asahi Kasei Pharma Corporation, priority 2008, published 2009)
